Data on eight compounds can be found in patent US12036246B2, “Compositions and methods for enhancing cancer chemotherapy” (priority 2017, dated 2024).

The subject of experiment [1] is HSP90. Description: Western blot of HSP90 in tumors, animal models of triple negative human breast cancer. Format: in vivo. The note with it: FIG. 111. As for the experimental part:
Studies of the effect of a nutritional supplement containing fish oil and selenium, both alone and in combination with chemotherapeutic agents, were also studied using in vivo animal models of triple negative human breast cancer. Animals were treated with a nutritional supplement containing fish oil and selenium (for example, a formulation as described in Table 1), Taxol (“tax”), Adriamycin (“adyri”), Avastin, or a combination of the nutritional supplement and individual chemotherapeutic agents.
On the technique in general: In western blotting, separated proteins are transferred to a membrane and probed.

Experiment [2] concerns p-AXL. Description: Western blot of p-AXL in tumors, animal models of triple negative human breast cancer. Format: in vivo. The following applies: FIG. 112.
Experiment [3] has as its system MDA-MB-231 breast cancer sphere cells. Nature of the experiment: Cell cycle phase distribution, Cisplatin / selenium / fish oil (Table 4). Format: cell-based. The note with it: selenium 500 ng/mL, fish oil 75 μM (DHA content), Cisplatin 5 μg/mL.
For experiment [4] the test system is unchanged. Nature of the experiment: Proliferation of MDA-MB-231 sphere cells. Format: cell-based. The note with it: FIG. 45-46.
In experiment [5] the test system is triple-negative breast cancer cell line (MDA-MB-231). Nature of the experiment: Proliferation of MDA-MB-231 breast cancer cells. Format: cell-based. The note with it: 72 hours, FIG. 8-9.
Experiment [6] has as its system A549 lung cancer cells. Description: Cell cycle phase distribution of A549 tumor cells. It is filed as cell-based. The note with it: selenium 300 ng/mL, fish oil 75 μM (DHA content), Alimta 1 μM, Tarceva 5 μM.
Experiment [7] concerns A549 lung cancer sphere cells. Description: Cell cycle phase distribution of A549 sphere cells. Format: cell-based. The note with it: Alimta 1 μM, Tarceva 5 μM, fish oil 75 μM, selenium 300 ng/mL.
The subject of experiment [8] is proliferative index marker. Nature of the experiment: Proliferative index marker in mammary gland tumors by immunocytochemistry. Format: in vivo, murine. The following applies: FIG. 11.
Text: The effects of a nutritional supplement that includes fish oil and selenium in combination with chemotherapeutic drugs were also identified in in vivo studies, where the Ki-61 proliferative index marker was identified in mammary gland tumors of murine models by immunocytochemistry.
The subject of experiment [9] is vascularization of tumors. Nature of the experiment: Tumor-associated blood vessels in murine models of breast cancer. The note with it: FIG. 24-31. Format: in vivo, mice.
Experimental: In an exemplary study mice were treated as shown in the scheme depicted in FIG. 23.
In experiment [10] the test system is Cytochrome C. Nature of the experiment: Western blot of Cytochrome C in tumors. Format: in vivo. The following applies: FIG. 38. The text has this: Results of similar studies directed to Bc1-2, p-Bc1-2, and Caspase 3 are shown in FIG. 36; results for similar studies directed to Caspase 8 are shown in FIG. 37. […] These effects are enhanced, in several instances synergistically, when a nutritional supplement containing fish oil and selenium is used in combination with a chemotherapeutic drug.

Experiment [11] has as its system breast cancer cells. Description: Metastatic tumor load in mammary glands, animals implanted with breast cancer cells. Format: in vivo. The note with it: FIG. 65.
In experiment [12] the test system is PTHrP. Description: PTHrP expression in tumors. Format: in vivo. The note with it: FIG. 77, FIG. 89.
Experiment [13] deals with UCP-1. Nature of the experiment: UCP-1 expression in animal models of human cancer. It is filed as in vivo. The following applies: FIG. 89. An excerpt:
(§1) As shown in FIG. 89 (lower left panel), expression of UCP-1 and ATGL is increases in tumor tissue (T) relative to non-tumor tissue (NT).

Experiment [14] deals with ATGL. Nature of the experiment: ATGL expression in animal models of human cancer. The following applies: FIG. 89. Format: in vivo.
Text: as §1

For experiment [15], the system named is Iressa-resistant HCC827GR cells. Description: Cell cycle phase distribution of Iressa-resistant cells, co-treatment. It is filed as cell-based, human. The note with it: Iressa 1 μM.
Experiment [16] concerns lung cancer cells. Nature of the experiment: Tumor weight in mice implanted with lung cancer cells, Iressa. Format: in vivo.
Experiment [17] deals with A549 sphere cells. Nature of the experiment: Proliferation of A549 sphere cells. Format: cell-based. The following applies: FIG. 43-44.
Experiment [18] has as its system HCC827Gr cells. Description: Viable resistant HCC827Gr cells in culture. Format: cell-based, human. The note with it: FIG. 54.
Experiment [19] deals with drug resistant HCC827Gr lung cancer cells. Nature of the experiment: Proliferation of drug resistant HCC827Gr cells. It is filed as cell-based, human.
Experiment [20] relates to HCC827Gr cells. Description: Colony formation by resistant HCC827Gr cells. Format: cell-based, human. The note with it: 0.5 μM Iressa, FIG. 59-60.
In experiment [21] the test system is PD-1. Nature of the experiment: PD-1 in T cells of animal models. It is filed as in vivo. The following applies: FIG. 70-72.
Experiment [22] deals with AXL. Nature of the experiment: Western blot of AXL in drug resistant HCC827GR cells. The following applies: Iressa 1 μM, FIG. 105, 108. Format: cell-based, human.
Experiment [23] deals with lung cancer cells. Nature of the experiment: Metastasis from implantation site of lung cancer cells. It is filed as in vivo, mice. The note with it: FIG. 63.
A short description of experiment [24]: Loss of adipose tissue and muscle mass in tumor bearing mice. It is filed as in vivo. The following applies: FIG. 75. An excerpt:
Individuals with cancer frequently present with weight loss, due to loss of fatty tissue and muscle wasting (cachexis). This weight loss can result in serious health issues in addition to those resulting directly from tumor growth and progression. […] Mice having tumors, with or without treatment with chemotherapeutic agents also experience cachexis.

Experiment [25] has as its system implanted tumor. The following applies: 28 days after tumor implantation, FIG. 13.
Text: 8A provides an example of a typical testing protocol for such a nutritional supplement (“Nutrawell”) and the chemotherapeutic drug Tarceva. As shown, 28 days after tumor implantation mice were sacrificed and the tumor characterized.
For experiment [26], the system named is IL-6. Nature of the experiment: IL-6 expression in tumors. The note with it: FIG. 77.

Some results are limits rather than exact numbers.

For the compound “Avastin: chemotherapeutic drug commonly used to treat breast cancer”, the “HSP90 expression in tumor samples” value in experiment [1] is recorded as “reduced to some extent”. Also, in experiment [2], the “p-AXL content of the tumor” value is on record as “little to no apparent reduction in p-AXL expression”.

As to `N.N.[Cl][Pt][Cl]` [Cisplatin], in experiment [3], the “G0/G1 (cell cycle phase distribution)” value was determined as 48.5%, the “G2/M (cell cycle phase distribution)” value stood at 6.1%, the “S (cell cycle phase distribution)” value worked out at 45.4% and the “SubG1 (cell cycle phase distribution)” value was determined as 11.7%. Besides, in experiment [4], the “proliferation of MDA-MB-231 breast cancer sphere cells” value is “relatively resistant”.

For the compound `CC(=O)O[C@@]12CO[C@@H]1C[C@H](O)[C@@]1(C)C(=O)[C@H](O)C3=C(C)[C@@H](OC(=O)[C@H](O)[C@@H](NC(=O)OC(C)(C)C)c4ccccc4)C[C@@](O)([C@@H](OC(=O)c4ccccc4)[C@H]21)C3(C)C` [Docetaxel], in experiment [5], the MDA-MB-231 cell proliferation result was “provided a reduction in proliferation”. Besides, the “proliferation of MDA-MB-231 breast cancer sphere cells” value in [4] was “moderate sensitivity to Docetaxel”.

Turning to `Nc1nc2[nH]cc(CCc3ccc(C(=O)N[C@@H](CCC(=O)O)C(=O)O)cc3)c2c(=O)[nH]1` [Alimta], in experiment [6], the “G0/G1 (cell cycle phase distribution)” value amounted to 58.4%, the “G2/M (cell cycle phase distribution)” value was 5.3%, the “S (cell cycle phase distribution)” value is given as 36.3% and the “SubG1 (cell cycle phase distribution)” value was 45%. For the same compound, in experiment [7], the “G0/G1 (cell cycle phase distribution)” value was found to be 62.4%, the “G2/M (cell cycle phase distribution)” value was found to be 7.2%, the “S (cell cycle phase distribution)” value turned out to be 30.4% and the “SubG1 (cell cycle phase distribution)” value stood at 20.9%.

On to `CC(=O)O[C@H]1C(=O)[C@@]2(C)[C@H]([C@H](OC(=O)c3ccccc3)[C@]3(O)C[C@H](OC(=O)[C@H](O)[C@@H](NC(=O)c4ccccc4)c4ccccc4)C(C)=C1C3(C)C)[C@]1(OC(C)=O)CO[C@@H]1C[C@@H]2O` [Taxol, paclitaxel], for which the “number of Ki-61 positive cells (proliferative index)” value in experiment [8] was “reduces the number of positive cells”. Moreover, in experiment [9], the “blood vessels associated with the tumors” value was “reduce the number of blood vessels associated with the tumor and also reduce their diameter”. Besides, the “Cytochrome C” value in [10] is listed as “little to no increase”. Besides, in experiment [11], the “metastatic tumor load in the mammary glands” value was “modest reduction in tumor loading of mammary glands”. The PTHrP expression entry in experiment [12] is “actually increased expression when used alone”. For the same compound, the “expression of UCP-1” value in experiment [13] is recorded as “decreased somewhat”. In addition, in experiment [14], the “expression of ATGL” value was “decreased somewhat”. Moreover, the “HSP90 expression in tumor samples” value in [1] is on record as “minimal impact on HSP90 expression”. In experiment [2], the “p-AXL content of the tumor” value is given as “reduces p-AXL expression”.

`COc1cccc2c1C(=O)c1c(O)c3c(c(O)c1C2=O)C[C@@](O)(C(=O)CO)C[C@@H]3O[C@H]1C[C@H](N)[C@H](O)[C@H](C)O1` [Adriamycin, doxorubicin]: the “number of Ki-61 positive cells (proliferative index)” value in [8] is recorded as “reduces the number of positive cells”. Also, the “Cytochrome C” value in [10] was “little to no increase”. In experiment [11], the “metastatic tumor load in the mammary glands” value was “more effective than Taxol in reducing metastatic tumor load”. Also, in experiment [2], the “p-AXL content of the tumor” value is recorded as “little to no apparent reduction in p-AXL expression”.

On to `COc1cc2ncnc(Nc3ccc(F)c(Cl)c3)c2cc1OCCCN1CCOCC1` [Iressa], for which, in experiment [15], the “G0/G1 (cell cycle phase distribution)” value is 76.1%, the “G2/M (cell cycle phase distribution)” value is recorded as 18.9%, the “S (cell cycle phase distribution)” value is on record as 4.9% and the “SubG1 (cell cycle phase distribution)” value came out at 1.51%. Moreover, the tumor weight result in [16] (FIG. 16) is “only a marginal reduction in tumor weight”. Also, the tumor weight distribution entry in [16] (FIG. 16 top right panel) is reported as “most of the mice having >6 gram tumors”. The “proliferation of A549 sphere cells” value in [17] is reported as “relatively resistant to treatment with Iressa”. Also, in experiment [18], the “number of viable resistant HCC827Gr cells” value is recorded as “does not significantly decrease the number of viable resistant HCC827Gr cells”. The “reduction in cell proliferation” value in [19] (HCC827Gr cells, FIG. 57-58) is on record as at most 20%. Further, in experiment [19] (Homo sapiens, read-out: proliferation, % of control values), the activity at 1 µM was around 80%. The “colony formation by HCC827Gr cells” value in experiment [20] is on record as “Significant colony formation”. In experiment [21], the “PD-1 expression in T cells” value is on record as “marginally reduced”. For the same compound, the AXL expression entry in experiment [22] is on record as “had no effect”.

With `C#Cc1cccc(Nc2ncnc3cc(OCCOC)c(OCCOC)cc23)c1` [Tarceva], in experiment [6], the “G0/G1 (cell cycle phase distribution)” value came out at 70.9%, the “G2/M (cell cycle phase distribution)” value is 14.8%, the “S (cell cycle phase distribution)” value was determined as 14.2% and the “SubG1 (cell cycle phase distribution)” value stood at 5.9%. For the same compound, in experiment [7], the “G0/G1 (cell cycle phase distribution)” value stood at 58.3%, the “G2/M (cell cycle phase distribution)” value is 8.9%, the “S (cell cycle phase distribution)” value is 32.7% and the “SubG1 (cell cycle phase distribution)” value came to 42.8%. In addition, the “proliferation of A549 sphere cells” value in experiment [17] is on record as “similarly resistant to Tarceva”. Besides, in experiment [23], the “metastasis of tumor cells from the implantation site” value was “reduced to some extent”. Moreover, the “PD-1 expression in T cells” value in [21] is recorded as “marginally reduced”. Also, the “loss of white adipose tissue (WAT), brown adipose tissue (BAT), and muscle mass (gastroc)” value in experiment [24] was “only slightly relieved”. The PTHrP expression entry in experiment [12] was “can actually increase expression of such gene products”. Further, the “tumor weight distribution, large (>5 g) tumors” value in experiment [25] was “still showed a significant number of such large tumors”. Also, the “IL-6 expression in tumors” value in [26] was “can actually increase expression of such gene products”.
